Experimental data as given in US7135466B2 (Kirin Beer Kabushiki Kaisha, priority 1999, dated 2006).

Columns and labels:
PDGF-Ra = target: T1, PDGF-Ra (Homo sapiens, UniProt P16234); assay: Inhibitory activity against PDGF-Ra phosphorylation by PDGF-AA stimulation using G292; format: cell-based; settings: for IC50: Pharmacological Test Example 1, > means inhibition at indicated concentration not more than 50%, < and << not less than 50%, read-out: PDGF (E) IC50
T1 construct: host or cells: G-292 human osteosarcoma cells
T1 sequence (P16234 24-1089): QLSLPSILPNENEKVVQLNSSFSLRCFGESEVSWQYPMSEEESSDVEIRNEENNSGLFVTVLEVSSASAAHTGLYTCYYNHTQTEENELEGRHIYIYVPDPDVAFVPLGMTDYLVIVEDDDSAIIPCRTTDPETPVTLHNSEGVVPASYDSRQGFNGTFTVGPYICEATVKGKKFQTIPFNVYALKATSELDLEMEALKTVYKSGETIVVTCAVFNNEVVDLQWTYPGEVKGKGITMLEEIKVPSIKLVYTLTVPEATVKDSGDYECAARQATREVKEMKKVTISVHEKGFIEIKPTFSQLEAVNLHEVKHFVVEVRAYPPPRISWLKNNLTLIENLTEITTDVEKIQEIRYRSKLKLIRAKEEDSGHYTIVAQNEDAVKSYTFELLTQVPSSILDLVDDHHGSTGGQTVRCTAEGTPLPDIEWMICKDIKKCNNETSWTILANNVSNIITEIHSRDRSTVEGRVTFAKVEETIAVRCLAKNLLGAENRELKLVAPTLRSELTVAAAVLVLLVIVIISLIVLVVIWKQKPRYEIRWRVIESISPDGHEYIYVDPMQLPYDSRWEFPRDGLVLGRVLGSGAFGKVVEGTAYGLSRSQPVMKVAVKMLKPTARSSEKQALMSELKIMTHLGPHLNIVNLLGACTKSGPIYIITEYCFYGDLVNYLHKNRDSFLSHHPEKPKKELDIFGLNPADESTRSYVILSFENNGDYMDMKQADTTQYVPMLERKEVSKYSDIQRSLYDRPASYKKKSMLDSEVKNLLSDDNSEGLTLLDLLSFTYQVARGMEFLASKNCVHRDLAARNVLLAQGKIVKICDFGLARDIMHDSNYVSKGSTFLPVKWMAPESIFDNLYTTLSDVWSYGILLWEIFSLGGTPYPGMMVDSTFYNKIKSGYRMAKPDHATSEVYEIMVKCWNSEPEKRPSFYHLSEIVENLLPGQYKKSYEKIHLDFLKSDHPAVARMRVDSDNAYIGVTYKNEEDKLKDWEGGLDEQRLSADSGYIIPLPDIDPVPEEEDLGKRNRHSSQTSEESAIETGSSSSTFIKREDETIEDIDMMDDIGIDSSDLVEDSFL
In short: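 Human osteosarcoma G-292, 0.1% FBS o/n; cpd (DMSO) 1 h 37 °C; PDGF-AA 50 ng/ml 5 min; lyse 20 min RT; PY-20 capture 4 °C o/n; anti-PDGF-Ra + HRP-GAR; OD450.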

c-kit = target: T2, c-kit (Homo sapiens, UniProt P10721); assay: Inhibitory activity against c-kit autophosphorylation (MO7e cells, h-SCF); format: cell-based; settings: MO7e cells, h-SCF 50 ng/ml; read-out: c-kit IC50
T2 construct: MO7e (human megakaryocytic leukemia cell line) which had been arrested for 20 hr; endogenous in cells; host or cells: MO7e human megakaryocytic leukemia cell line
T2 sequence (P10721 26-976): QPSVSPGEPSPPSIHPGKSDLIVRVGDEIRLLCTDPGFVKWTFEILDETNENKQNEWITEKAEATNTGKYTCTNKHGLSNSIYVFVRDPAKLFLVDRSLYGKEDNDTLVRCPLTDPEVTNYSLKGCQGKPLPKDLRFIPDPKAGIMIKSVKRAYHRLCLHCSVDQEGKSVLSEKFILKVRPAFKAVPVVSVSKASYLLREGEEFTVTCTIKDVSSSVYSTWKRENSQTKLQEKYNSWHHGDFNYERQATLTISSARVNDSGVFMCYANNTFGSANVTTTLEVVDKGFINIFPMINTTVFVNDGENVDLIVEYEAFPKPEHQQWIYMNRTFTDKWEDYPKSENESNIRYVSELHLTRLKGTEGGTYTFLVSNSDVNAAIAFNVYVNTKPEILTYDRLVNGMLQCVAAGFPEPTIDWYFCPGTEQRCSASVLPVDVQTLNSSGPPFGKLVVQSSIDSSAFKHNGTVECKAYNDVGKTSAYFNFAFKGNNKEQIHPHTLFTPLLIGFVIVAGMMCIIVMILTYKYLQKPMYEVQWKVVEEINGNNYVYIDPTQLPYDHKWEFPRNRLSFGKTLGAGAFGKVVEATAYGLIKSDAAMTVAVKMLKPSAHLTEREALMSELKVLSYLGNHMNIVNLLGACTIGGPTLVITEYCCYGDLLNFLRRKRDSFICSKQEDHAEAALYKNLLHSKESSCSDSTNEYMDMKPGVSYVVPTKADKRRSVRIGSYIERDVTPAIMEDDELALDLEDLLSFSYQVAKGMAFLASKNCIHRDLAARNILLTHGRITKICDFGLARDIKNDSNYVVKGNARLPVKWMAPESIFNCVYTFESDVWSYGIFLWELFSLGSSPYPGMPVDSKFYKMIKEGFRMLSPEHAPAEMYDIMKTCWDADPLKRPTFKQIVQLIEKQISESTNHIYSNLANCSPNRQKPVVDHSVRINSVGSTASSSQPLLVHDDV
In short: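 In this cellular autophosphorylation assay, compound-treated MO7e cells (1 hr) were challenged with human stem cell factor at 50 ng/ml for 5 min; detection relied on PY-20 capture and anti-c-kit/HRP immunodetection at 450 nm.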

IC50 (PDGF-Ra) [nM]	IC50 (c-kit) [nM]	inhibition at 0.1 µM (PDGF-Ra; G292, figure in parentheses in >100( ), at 100 nM, read-out: PDGF (E) inhibition (%) at 100 nM) [%]	Structure (SMILES)
< 10	70	–	COc1cc2nccc(Oc3cc(C)c(NC(=O)OCCCSc4ccccn4)cc3C)c2cc1OC [Example 174, 3-(2-Pyridylsulfanyl)propyl N-{4-[(6,7-dimethoxy-4-quinolyl)oxy]-2,5-dimethylphenyl}-carbamate]
< 10	45	–	COc1cc2ncnc(Oc3ccc(NC(=O)OCCCSc4ccccn4)cc3)c2cc1OC [Example 175, 3-(2-Pyridylsulfanyl)propyl N-{4-[(6,7-dimethoxy-4-quinazolinyl)oxy]phenyl}carbamate]
20	< 30	–	COc1cc2nccc(Oc3ccc(NC(=O)Sc4ccc(Cl)cc4C)cc3)c2cc1OC [Example 176, 4-Chloro-2-methylphenyl{4-[(6,7-dimethoxy-4-quinolyl)oxy]anilino}methanethioate]
19	< 30	–	COc1cc2nccc(Oc3ccc(NC(=O)Sc4ccc(Cl)cc4C)c(C)c3C)c2cc1OC [Example 177, 4-Chloro-2-methylphenyl{4-[(6,7-dimethoxy-4-quinolyl)oxy]-2,3-dimethylanilino}methanethioate]
35	706	–	COc1cc2ncnc(Oc3ccc(NC(=O)OC(C)c4cccc(OC(F)(F)F)c4)cc3)c2cc1OC (centres unmarked) [Example 183, 1-[3-(Trifluoromethoxy)phenyl]ethyl N-{4-[(6,7-dimethoxy-4-quinazolinyl)oxy]phenyl}carbamate]
38	369	–	CCCC(OC(=O)Nc1ccc(Oc2ccnc3cc(OC)c(OC)cc23)cc1)c1ccccc1 (centres unmarked) [Example 184, 1-Phenylbutyl N{4-[(6,7-dimethoxy-4-quinolyl)oxy]phenyl}carbamate]
< 10	561	–	CCCC(OC(=O)Nc1ccc(Oc2ncnc3cc(OC)c(OC)cc23)cc1)c1ccccc1 (centres unmarked) [Example 187, 1-Phenylbutyl N-{4-[(6,7-dimethoxy-4-quinazolinyl)oxy]phenyl}carbamate]
84	503	–	COc1cc2ncnc(Oc3ccc(NC(=O)OCCN(C)C)cc3)c2cc1OC [Example 191, 2-(Dimethylamino)ethyl N-{4-[(6,7-dimethoxy-4-quinazolinyl)oxy]phenyl}carbamate]
35	807	–	COc1cc2nccc(Oc3ccc(NC(=O)OC(C)c4cccc(N(C)C)c4)cc3)c2cc1OC (centres unmarked) [Example 199, 1-[3-(Dimethylamino)phenyl]ethyl N-{4-[(6,7-dimethoxy-4-quinolyl)oxy]phenyl}carbamate]
31	329	–	COc1cc2nccc(Oc3ccc(NC(=O)OC(C)c4cccc(N(C)C)c4)c(C)c3C)c2cc1OC (centres unmarked) [Example 200, 1-[3-(Dimethylamino)phenyl]ethyl N-{4-[(6,7-dimethoxy-4-quinolyl)oxy]-2,3-dimethylphenyl}-carbamate]
10	610	–	COc1cc2ncnc(Oc3ccc(NC(=O)OC(C)c4cccc(N(C)C)c4)cc3)c2cc1OC (centres unmarked) [Example 202, 1-[3-(Dimethylamino)phenyl]ethyl N-{4-[(6,7-dimethoxy-4-quinazolinyl)oxy]phenyl}carbamate]
25	169	–	COc1cc2nccc(Oc3ccc(NC(=O)OCCOc4ccccc4F)cc3)c2cc1OC [Example 203, 2-(2-Fluorophenoxy)ethyl N-{4-[(6,7-dimethoxy-4-quinolyl)oxy]phenyl}carbamate]
28	79	–	COc1cc2nccc(Oc3ccc(NC(=O)OCCOc4ccccc4F)c(C)c3C)c2cc1OC [Example 204, 2-(2-Fluorophenoxy)ethyl N-{4-[(6,7-dimethoxy-4-quinolyl)oxy]-2,3-dimethylphenyl}carbamate]

Second part, the compound before the results:

Structure (SMILES)	IC50 (PDGF-Ra) [nM]	IC50 (c-kit) [nM]	inhibition at 0.1 µM (PDGF-Ra; G292, figure in parentheses in >100( ), at 100 nM, read-out: PDGF (E) inhibition (%) at 100 nM) [%]
COc1cc2ncnc(Oc3ccc(NC(=O)OCCCOc4ccc(F)cc4)cc3)c2cc1OC [Example 155, 3-(4-Fluorophenoxy)propyl N-{4-[(6,7-dimethoxy-4-quinazolinyl)oxy]phenyl}carbamate]	14	41	–
COc1cc2ncnc(Oc3ccc(NC(=O)OCCCOc4ccc(F)cc4)c(C)c3C)c2cc1OC [Example 156, 3-(4-Fluorophenoxy)propyl N-{4-[(6,7-dimethoxy-4-quinazolinyl)oxy]-2,3-dimethylphenyl}-carbamate]	> 100	33	48
COc1cc2nccc(Oc3ccc(NC(=O)OCCCOc4ccccc4OC)cc3)c2cc1OC [Example 157, 3-(2-Methoxyphenoxy)propyl N-{4-[(6,7-dimethoxy-4-quinolyl)oxy]phenyl}carbamate]	< 10	35	–
COc1cc2nccc(Oc3ccc(NC(=O)OCCCOc4ccccc4OC)c(C)c3C)c2cc1OC [Example 158, 3-(2-Methoxyphenoxy)propyl N-{4-[(6,7-dimethoxy-4-quinolyl)oxy]-2,3-dimethylphenyl}carbamate]	12	107	–
COc1cc2nccc(Oc3cc(C)c(NC(=O)OCCCOc4ccccc4OC)cc3C)c2cc1OC [Example 159, 3-(2-Methoxyphenoxy)propyl N-{4-[(6,7-dimethoxy-4-quinolyl)oxy]-2,5-dimethylphenyl}carbamate]	52	147	–
COc1cc2ncnc(Oc3ccc(NC(=O)OCCCOc4ccccc4OC)cc3)c2cc1OC [Example 160, 3-(2-Methoxyphenoxy)propyl N-{4-[(6,7-dimethoxy-4-quinazolinyl)oxy]phenyl}carbamate]	16	52	–
COc1cccc(OCCCOC(=O)Nc2ccc(Oc3ccnc4cc(OC)c(OC)cc34)cc2)c1 [Example 161, 3-(3-Methoxyphenoxy)propyl N-{4-[(6,7-dimethoxy-4-quinolyl)oxy]phenyl}carbamate]	< 10	178	–
COc1cccc(OCCCOC(=O)Nc2ccc(Oc3ccnc4cc(OC)c(OC)cc34)c(C)c2C)c1 [Example 162, 3-(3-Methoxyphenoxy)propyl N-{4-[(6,7-dimethoxy-4-quinolyl)oxy]-2,3-dimethylphenyl}carbamate]	16	162	–
COc1cccc(OCCCOC(=O)Nc2cc(C)c(Oc3ccnc4cc(OC)c(OC)cc34)cc2C)c1 [Example 163, 3-(3-Methoxyphenoxy)propyl N-{4-[(6,7-dimethoxy-4-quinolyl)oxy]-2,5-dimethylphenyl}carbamate]	< 10	185	–
COc1cccc(OCCCOC(=O)Nc2ccc(Oc3ncnc4cc(OC)c(OC)cc34)cc2)c1 [Example 164, 3-(3-Methoxyphenoxy)propyl N-{4-[(6,7-dimethoxy-4-quinazolinyl)oxy]phenyl}carbamate]	12	50	–
COc1cc2nccc(Oc3ccc(NC(=O)OCCSc4cc(C)ccc4C)cc3)c2cc1OC [Example 165, 2-[(2,5-dimethylphenyl)sulfanyl]ethyl N-{4-[(6,7-dimethoxy-4-quinolyl)oxy]phenyl}carbamate]	49	149	–
COc1cc2nccc(Oc3ccc(NC(=O)OCCSc4cc(C)ccc4C)c(C)c3C)c2cc1OC [Example 166, 2-[(2,5-Dimethylphenyl)sulfanyl]ethyl N-{4-[(6,7-dimethoxy-4-quinolyl)oxy]-2,3-dimethylphenyl}carbamate]	34	145	–
COc1cc2nccc(Oc3cc(C)c(NC(=O)OCCSc4cc(C)ccc4C)cc3C)c2cc1OC [Example 167, 2-[(2,5-Dimethylphenyl)sulfanyl]ethyl N-{4-[(6,7-Dimethoxy-4-quinolyl)oxy]-2,5-dimethylphenyl}carbamate]	45	370	–
COc1cc2ncnc(Oc3ccc(NC(=O)OCCSc4cc(C)ccc4C)cc3)c2cc1OC [Example 168, 2-[(2,5-Dimethylphenyl)sulfanyl]ethyl N-{4-[(6,7-dimethoxy-4-quinazolinyl)oxy]phenyl}carbamate]	15	52	–
COc1cc2nccc(Oc3ccc(NC(=O)OCCCSc4cc(C)ccc4C)cc3)c2cc1OC [Example 169, 3-[(2,5-Dimethylphenyl)sulfanyl)propyl N-{4-[(6,7-dimethoxy-4-quinolyl)oxy]phenyl}carbamate]	< 10	31	–
COc1cc2nccc(Oc3ccc(NC(=O)OCCCSc4cc(C)ccc4C)c(C)c3C)c2cc1OC [Example 170, 3-[(2,5-Dimethylphenyl)sulfanyl]propyl N-{4-[(6,7-dimethoxy-4-quinolyl)oxy]-2,3-dimethylphenyl}carbamate]	< 10	34	–
COc1cc2nccc(Oc3cc(C)c(NC(=O)OCCCSc4cc(C)ccc4C)cc3C)c2cc1OC [Example 171, 3-[(2,5-Dimethylphenyl)sulfanyl]propyl N-{4-[(6,7-dimethoxy-4-quinolyl)oxy]-2,5-dimethylphenyl}carbamate]	22	83	–
COc1cc2ncnc(Oc3ccc(NC(=O)OCCCSc4cc(C)ccc4C)cc3)c2cc1OC [Example 172, 3-[(2,5-Dimethylphenyl)sulfanyl]-propyl N-{4-[(6,7-dimethoxy-4-quinazolinyl)oxy]phenyl}carbamate]	17	74	–
COc1cc2nccc(Oc3ccc(NC(=O)OCCCSc4ccccn4)c(C)c3C)c2cc1OC [Example 173, 3-(2-Pyridylsulfanyl)propyl N-{4-[(6,7-dimethoxy-4-quinolyl)oxy]-2,3-dimethylphenyl}-carbamate]	< 10	37	–
